Molecules are shown by their SMILES.

By EC50 is commonly meant the concentration at which the effect is half-maximal. Higher therefore signals a less potent agent. In general, IC50 refers to the concentration that gives 50% inhibition.

Assay [1] concerns Rat basophilic leukemia (RBL) cells. Description: LTB4 secretion assay in RBL (rat basophilic leukemia cells). It counts as cell-based. The following applies: Rattus norvegicus, RBL. Here is the method: Rat basophilic leukemia (RBL) cells (ATCC, Cat #CRL-2256) were maintained in EMEM (ATCC, Cat #30-2003) supplemented with 15% FBS. The day before RBL assay, cells were seeded at a concentration of 2×10^4 cells per well in 96-well plates. The media was replaced with 100 ul of EMEM supplemented with 0.5% FBS and compounds in dose response(5 nM to 100 uM) were added. After 15 min of pre-incubation at 37° C., arachidonic acid and calcium ionophore (A23187) were added to give a final concentration of 2.5 uM and 5 uM, respectively. After a further 10 min incubation at 37° C., culture supernatant was transferred and quantification of LTB4 was done with a Leukotriene B4 EIA kit (Cayman, Cat #520111) as instructed.

The next assay addresses T1, human 5-LOX (Homo sapiens, UniProt P09917).
T1 construct: purchased Cayman 60402; host or cells: insect cells (lysate)
T1 sequence (P09917 1-674): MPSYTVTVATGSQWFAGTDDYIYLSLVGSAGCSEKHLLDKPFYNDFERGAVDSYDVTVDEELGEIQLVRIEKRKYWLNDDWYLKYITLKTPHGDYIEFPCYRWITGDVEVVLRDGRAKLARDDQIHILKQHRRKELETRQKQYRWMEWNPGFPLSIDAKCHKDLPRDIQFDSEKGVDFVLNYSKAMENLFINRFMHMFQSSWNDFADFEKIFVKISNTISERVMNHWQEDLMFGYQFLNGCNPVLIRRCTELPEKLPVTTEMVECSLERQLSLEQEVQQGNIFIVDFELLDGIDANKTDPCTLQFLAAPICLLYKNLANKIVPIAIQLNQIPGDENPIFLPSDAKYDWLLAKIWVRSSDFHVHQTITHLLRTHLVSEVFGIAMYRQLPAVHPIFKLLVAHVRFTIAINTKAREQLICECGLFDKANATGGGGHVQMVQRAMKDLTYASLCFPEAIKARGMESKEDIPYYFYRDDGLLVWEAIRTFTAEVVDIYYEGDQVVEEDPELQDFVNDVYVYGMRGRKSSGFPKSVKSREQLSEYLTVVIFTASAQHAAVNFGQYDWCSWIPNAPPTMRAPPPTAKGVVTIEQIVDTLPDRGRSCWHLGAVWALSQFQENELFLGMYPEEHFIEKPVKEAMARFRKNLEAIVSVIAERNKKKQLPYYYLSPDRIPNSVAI
Description: 5-LOX enzyme activity, fluorescence method (5-HPETE, H2DCFDA). It counts as biochemical. As to conditions: read-out: 5-LO (IC50). The protocol: The activity of compounds against 5-LOX were determined by measuring LTB4 (leukotriene B4) levels and/or by a fluorescence method. Both approaches are outlined in more detail below;
The compound, in a dose response manner(0.5 nM to 10 uM), and enzyme mixture was pre-incubated for 5 minutes, and the enzymatic reaction was initiated by addition of ATP and arachidonic acid to a final concentration of 100 uM and 3 uM, respectively. […] All steps were carried out at room temperature.

For the compound `Nc1ccc2nc(NCc3coc(Cc4ccc(Cl)cc4)n3)[nH]c2c1` [Compound 186], the concentration giving a half-maximal response (EC50) in assay [1] is less than 10 µM. At human 5-LOX, the 50% inhibitory concentration (IC50) is less than 1 µM.
Consider `Nc1ccc2nc(N)n(Cc3ccc(Oc4ccc(Cl)cn4)c(Cl)c3)c2c1` [Compound 255], for which the concentration giving a half-maximal response (EC50) in assay [1] was less than 10 µM. In addition, the 50% inhibitory concentration (IC50) at human 5-LOX is less than 1 µM.
On the same counts, the results for `Cn1ccc(Nc2ccc3nc(NCc4ccc(Oc5ncc(Cl)cn5)cc4)[nH]c3c2F)n1` [Compound 480] are less than 10 µM and less than 1 µM.
On the same counts, the results for `CC(C)(C(=O)c1ccc(CNc2nc3ccc(N)cc3[nH]2)cc1)C(F)(F)F` [Compound 205] are less than 10 µM and less than 1 µM.
For `Cn1c(NCc2ccc(Oc3cc(Cl)ncn3)cc2)nc2ccc(N)cc21` [Compound 393], in that order: less than 10 µM and less than 1 µM.
In assay [1], `CN(C)c1nc2cc(NCc3coc(Nc4ccc(Cl)cc4)n3)ccc2[nH]1` [Compound 214] gave an EC50 of less than 10 µM. The IC50 at human 5-LOX is less than 1 µM.
On the same counts, the results for `CN(C)c1nc2cc(NCc3ccc(-c4nc(C(=O)O)co4)cc3)ccc2[nH]1` [Compound 228] are more than 20 µM and less than 1 µM.
Take `CC(C)(O)Cn1c(NCc2ccc(Oc3ccc(Cl)cn3)cc2)nc2ccc(NC3COC3)cc21` [Compound 208]: the EC50 in assay [1] is less than 10 µM. Further, at human 5-LOX, the IC50 was less than 1 µM.
For `Cn1c(NCc2ccc(Oc3ccc4cc(Cl)ccc4n3)cc2)nc2ccc(N)cc21` [Compound 389], in that order: less than 10 µM and less than 1 µM.
In assay [1], `Cn1c(NCc2ccc(Oc3ccc(Cl)cc3)nc2)nc2ccc(N)cc21` [Compound 287] displayed an EC50 of less than 10 µM. The concentration for half-maximal inhibition (IC50) at human 5-LOX was less than 1 µM.
The compound `Cn1c(NCc2ccc(Oc3ccc(Cl)cn3)cc2)nc2ccc(NCCc3ccccn3)cc21` [Compound 329] came in with an EC50 in assay [1] of less than 10 µM. Besides, the IC50 at human 5-LOX was less than 1 µM.
As for `CCOC(=O)CNc1nc2ccc(N)cc2n1Cc1ccc(Oc2ccc(Cl)cc2)cc1` [Compound 207], in assay [1], the concentration giving a half-maximal response (EC50) was less than 10 µM. Besides, the IC50 on human 5-LOX was less than 1 µM.
Compound `Cn1c(NCc2ccc(Oc3ncc(Cl)cn3)cc2)nc2ccc(NCC(O)c3ccc(F)cc3)cc21` (stereo not shown) [Compound 372] gave an EC50 in assay [1] of less than 10 µM. Moreover, the 50% inhibitory concentration (IC50) at human 5-LOX is less than 1 µM.
For `Cn1c(NCc2ccc(Oc3ccc(Cl)cn3)nc2)nc2ccc(N)cc21` [Compound 308], the concentration for a half-maximal effect (EC50) in assay [1] was more than 20 µM. In addition, the IC50 at human 5-LOX was less than 1 µM.
For `Clc1ccc(OC(CNc2nc3ccc(NC4COC4)cc3[nH]2)c2ccccc2)cc1` (stereo not shown) [Compound 180], in that order: less than 10 µM and less than 1 µM.
On the same counts, the results for `Nc1ccc2nc(N)n(CCc3ccc(Oc4ccc(Cl)cn4)cc3)c2c1` [Compound 244] are less than 10 µM and less than 1 µM.
On the same counts, the results for `Cn1c(NCc2ccc(Oc3ccncn3)cc2)nc2ccc(N)cc21` [Compound 370] are 10 to 20 µM and less than 1 µM.
Regarding `Cc1ccc(Oc2ccc(CNc3nc4ccc(NC5COC5)cc4n3C)cc2)nc1` [Compound 353], the EC50 in assay [1] is less than 10 µM. At human 5-LOX, the IC50 was less than 1 µM.
`Cn1c(NCc2ccc(Oc3ccc(Cl)cn3)cc2F)nc2ccc(N)cc21` [Compound 272] showed an EC50 in assay [1] of less than 10 µM. Further, the concentration for half-maximal inhibition (IC50) on human 5-LOX was less than 1 µM.
For `Nc1ccc2nc(NCc3ccc(Oc4ccc(Cl)cn4)cc3)n(C3COC3)c2c1` [Compound 261], in that order: less than 10 µM and less than 1 µM.
In the case of `Cn1c(NCc2ccc(Oc3ncc(Cl)cn3)c(Cl)c2)nc2ccc(N)cc21` [Compound 391], in assay [1], the half-maximal effective concentration (EC50) was less than 10 µM. Besides, the IC50 at human 5-LOX was less than 1 µM.
Take `Cn1c(NCc2ccc(Oc3ccc4c(Cl)cccc4n3)cc2)nc2ccc(N)cc21` [Compound 424]: in assay [1], the concentration for a half-maximal effect (EC50) was less than 10 µM. Also, the IC50 at human 5-LOX was less than 1 µM.
Compound `Cn1c(NCc2ccc(Oc3ncc(Cl)cn3)cc2)nc2ccc(NCc3ncccn3)cc21` [Compound 365] had an EC50 in assay [1] of less than 10 µM. Moreover, on human 5-LOX, the 50% inhibitory concentration (IC50) was less than 1 µM.

Source of the values: patent US11447486B2, “2-amino-benzimidazole derivatives and their use as 5-lipoxygenase and/or prostaglandin E synthase inhibitors” (INSTITUT PASTEUR KOREA, priority 2014, dated 2022).
